# Source: US20220110936A1, “PHARMACEUTICAL COMPOSITION FOR TREATMENT OF NEURODEGENERATIVE DISEASES OR DISEASES CAUSED BY ABNORMALITY OF RNA BINDING PROTEIN AND APPLICATIONS THEREOF” (Shanghai Institute of Organic Chemistry, Chinese Academy of …, priority 2019, published 2022)
# How the values were obtained:
# [1] = test system: stress granules containing hnRNP A1 protein in HeLa cells; experiment: Assembly of stress granules containing hnRNP A1 under sodium arsenite (immunofluorescence); type: cell-based, human; settings: 20 μM, 3 h pretreatment, 100 μM sodium arsenite 0, 10, 30 min, vs DMSO
# Description: HeLa cells were cultivated in Dulbecco's modified Eagle's medium (DMEM) (sigma) containing 10% fetal bovine serum (FBS) (Biowest). Cells were purchased from American Type Culture Collection (ATCC) and grown at 37° C., 5% carbon dioxide. In the present invention, unless otherwise specified, cell were seeded 12-18 hours in advance in 24-well plates (Corning) containing glass slides (Thermo) at a density of 2×10^5/ml experiments if the cells were used for subsequent immunofluorescence assays, cells were seeded 12-18 hours in advance in 12-well or 6-well plates at a density of 5×10^5/ml if the cells were used for subsequent WB detection assays.
# Plasmid transfection: The plasmid pCAG-hnRNP A1-Flag constructed in 1.1.1 was transfected with PolyJet™ reagent (SignaGen) (the amount of transfection plasmid is 0.8 μg/ml, and the ratio of transfection reagent to transfection plasmid is 1:2 (mass volume percentage, for example, […])). Cells were seeded 12-18 hours in advance and transfection was started when the confluence of cell reached about 70%. About 6 hours after transfection, culture medium were changed to ensure growth status of cells. After the exogenous protein was expressed for 24-48 h, the next step of the experiment can be carried out. […]
# PARP = experiment: Western blot of intracellular PARylation level in HeLa cells; type: cell-based, human; settings: 20 μM, 3 h, vs DMSO
# Description: Drug treatment: in order to inhibit the level of intracellular PARylation, 20 μM PARP inhibitor Olaparib (Selleck) was added 3 hours before harvesting the plasmid-transfected samples mentioned above, and the control group was treated with an equal volume of DMSO. […]
# Immunoblotting assay: the above boiled proteins were separated by 10% Bis-Tris SDS-PAGE (Invitrogen), then transferred to 0.22 μm PVDF membrane (Millipore), sealed with 5% skimmed milk powder, and added with corresponding antibodies (anti-pan-ADP-ribose binding reagent (Millipore), mouse anti-Tubulin (MLB), rabbit anti-PRAG (CST), mouse anti-GAPDH (Proteintech)) for immunoblotting assay. Membranes incubated with primary antibodies were then incubated with the corresponding secondary antibodies coupled with HRP (goat anti-mouse (Sigma), goat anti-rabbit (sigma)), and corresponding protein signals were detected in Amersham Imager 600 (GE Healthcare) using ECL luminescent solution (Tanon).
# [2] = test system: stress granules containing TDP-43 protein in HeLa cells; experiment: Assembly of stress granules containing TDP-43 under sodium arsenite (immunofluorescence); type: cell-based, human; settings: 20 μM, 3 h pretreatment, vs DMSO
# Description: Drug treatment: in order to inhibit the level of intracellular PARylation, 20 μM PARP inhibitor Olaparib (Selleck) was added 3 hours before harvesting the plasmid-transfected samples mentioned above, and the control group was treated with an equal volume of DMSO.
# In order to induce the production of stress granules, the HeLa cells collected in 1.1.3 were treated with 100 μM sodium arsenite (Sigma) for 0, 10 and 30 minutes, respectively.
# Cells harvested after treatment in 1.1.4 above were washed once with PBS, fixed with 4% paraformaldehyde (Sangon Biotech) for 15 min, permeabilized with 0.5% Triton-X100 (Sigma) solution for 10 min, and finally incubated with PBST solution containing 3% goat serum (Sigma) (0.1% Tween 20 (Sigma) in PBS) for 1 h at room temperature and incubated overnight at 4° C. with antibodies (Rabbit anti-TIAR (CST), Mouse anti-Flag (Sigma)). The cells were washed with PBST three times at room temperature and incubated for 1 hour at room temperature. After washing three times with PBST at room temperature, fluorescent secondary antibodies (goat anti-mouse-Alexa Fluor 488 (Thermo), goat anti-rabbit-Alexa Fluor 568 (Thermo)) were added for labeling, and then Vectashield Antifade Mounting Medium with DAPI (Vector Laboratories) was used to seal the slices. The signals were observed and acquired under a 100× oil microscope on a Leica TCS SP8 confocal microscope. […]
# [3] = test system: motor neuron-like NSC-34 cells overexpressing TDP-43; experiment: Cell viability (CCK-8) of NSC-34 cells overexpressing TDP-43; type: cell-based; settings: 5 μM
# Description: (§1) 293T cells were cultured in DMEM (sigma) containing 10% FBS (Biowest). NSC-34 cells were cultured with RPMI 1640 medium (Gibco, 11875-093) containing 10% FBS. Cells were grown at 37° C. with 5% carbon dioxide. Cells were both purchased from ATCC.
# (§2) Lentiviral packaging plasmids and the corresponding exogenous hnRNP A1 or TDP-43 expression plasmids were transfected simultaneously in 293T cells with PolyJet™ transfection reagent. After 48 hours of transfection, the cell culture was collected by filtration with a 0.45 μm syringe filter (Millipore) and concentrated with Lenti-X™ Concentrator (Clontech), and the concentrated product was used for subsequent infection of NSC-34 cells.
# (§3) NSC-34 cells were seeded one day in advance in 96-well plates (Corning) and the corresponding lentivirus was added for transfection. Cell viability was determined 48-72 h after transfection using Cell Counting Kit-8 (CCK-8) (Dojindo) kit. In brief, 10 μL of CCK-8 solution was added to each well. After incubation at 37° C. for 2.5 h, the absorbance light at 450 nm of the solution was detected with a Synergy2 microplate reader (BioTek Instruments) and cell viability values were calculated according to the instructions.
# (§4) The siRNA transfection procedure was the same as that in Example 1, and the transfection time was 48-60 h. The corresponding siRNA sequences are as follows.
# [4] = test system: motor neuron-like NSC-34 cells overexpressing hnRNP A1; experiment: Cell viability (CCK-8) of NSC-34 cells overexpressing hnRNP A1; type: cell-based
# Description: as §1, §2, §3, §4
# ALS patients = settings: cited from earlier work
# hnRNP A1 = target: T1, hnRNP A1 (Homo sapiens, UniProt P09651); experiment: In vitro liquid-liquid phase separation (LLPS) of hnRNP A1; settings: added under critical conditions
# T1 construct: host or cells: E. coli BL21 (DE3) pLysS
# Description: pET9d-hnRNP A1 (Addgene) was used for hnRNP A1 protein expression in E. coli BL21 (DE3) pLysS (TranGeneBiotech). After 0.4 mM IPTG (SangonBiotech) induction at 25° C. for 15 h, the obtained bacteria were collected by centrifugation, and lysed by lysis buffer (50 mM Tris-HCl at pH 7.5, 2 mM DTT, 1 mM PMSF, 5% glycerin, and 0.1 mg/mL RNase A). Supernatant was collected by centrifugating the lysate at a high speed at 4° C. and then transferred to a 5 ml SP column in an AKTA (GE Healthcare) machine. The protein binded on the column was eluted with a mixture (9:1) of buffer A (50 mM Tris-HCl pH 7.5, 2 mM DTT and 5% glycerin) and buffer B (buffer A with 1 M NaCl). The eluted protein was purified by Superdex 75 16/600 column (GE Healthcare). The purified protein was dissolved in stock buffer (50 mM Tris-HCl pH 7.5, 500 mM NaCl and 2 mM DTT) for subsequent experiments.
# The purified hnRNP A1 protein was mixed with a certain concentration of PAR (Trevigen) under a certain salt concentration. The reaction system was 50 mM Tris-HCl, pH 7.5, 10% (w/v) […] (Sigma) and 2 mM DTT. After the mixture was incubated at room temperature for 3 minutes, 5 μl was dropped on a glass slide for observation with an SP8 confocal microscope (Leica).
# hnRNP A1 and TDP-43 = experiment: In vitro co-phase separation of hnRNP A1 and TDP-43 fragments
# Description: TDP-43^1-274: The expression plasmid pET-28a-TDP-43^1-274-6×His was expressed in BL21 E. coli (DE3) (TranGeneBiotech) after induction by 50 uM IPTG (SangonBiotech) at 19° C. for 16 h. The resulting bacteria were collected by centrifugation, and lysed by lysis buffer (50 mM Tris-HCl, 500 mM NaCl, pH 8.0, 10 mM imidazole, 4 mM β-mercaptoethanol, 1 mM PMSF, and 0.1 mg/mL RNase A). Supernatant was collected by centrifugating the lysate at low temperature and then purified and enriched by Ni column (GE Healthcare). The protein enriched by Ni columns was eluted with eluent (50 mM Tris-HCl, 500 mM NaCl, pH 8.0, 250 mM imidazole and 4 mM β-mercaptoethanol), and then purified with Superdex 200 […] column (GE Healthcare). The purified protein was finally dissolved in a storage buffer (50 mM Tris-HCl pH 7.5, 300 mM NaCl and 2 mM DTT) for subsequent experiments.
# TDP-43^274-414: This protein was expressed in BL21 E. coli (DE3) (TranGeneBiotech) by adding 50 uM IPTG (SangonBiotech) at 37° C. for inducing the expression of the protein in inclusion bodies. Collected bacteria were lysed with denaturing lysis buffer (50 mM Tris-HCl, pH 8.0 and 6 M guanidine hydrochloride). The lysis product was centrifuged at high speed for 1 h at 4° C. and the supernatant was collected for purification by Ni column. The proteins were eluted with denaturing elution solution (50 mM Tris-HCl at pH 8.0, 6 M guanidine hydrochloride and 50 mM imidazole) and then further purified by HPLC (Agilent) and the resulting product was lyophilized using a freeze-dryer (Thermo Fisher) and then prepared for use.
# The purified TDP-43^1-274 and hnRNP A1 proteins (obtained in Example 6) were diluted separately into desalting reaction solution (50 mM Tris-HCl, pH 7.5, 500 mM NaCl and 4 mM Tris(2-Carboxyethyl) Phosphine (TCEP) (Invitrogen)), and DTT was removed using a desalting column (GE Healthcare). After desalting, TDP-43^1-274 and hnRNP A1 proteins were incubated for 2 h at room temperature with 5 times the volume of AlexaFluor-555 C2-malemide (Invitrogen) or AlexaFluor-647 C2-malemide (Invitrogen), respectively. […]
# T1 sequence (P09651 1-320 isoform P09651-2): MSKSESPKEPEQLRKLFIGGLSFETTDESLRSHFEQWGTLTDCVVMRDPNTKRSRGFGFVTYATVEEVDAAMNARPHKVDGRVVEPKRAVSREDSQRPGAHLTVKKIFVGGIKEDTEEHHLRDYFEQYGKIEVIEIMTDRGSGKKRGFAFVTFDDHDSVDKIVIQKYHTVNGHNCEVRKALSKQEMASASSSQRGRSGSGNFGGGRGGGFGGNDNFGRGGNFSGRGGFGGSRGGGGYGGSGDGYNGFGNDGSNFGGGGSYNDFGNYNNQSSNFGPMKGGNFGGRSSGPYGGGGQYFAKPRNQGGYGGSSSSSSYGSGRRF
compound,measurement,setting,value
O=C(c1cc(Cc2n[nH]c(=O)c3ccccc23)ccc1F)N1CCN(C(=O)C2CC2)CC1 [Olaparib],formation of intracellular stress granules and stress granules containing hnRNP A1,[1],delayed
same,intracellular level of PARylation (WB),PARP,significantly reduce
same,formation of intracellular stress granules and stress granules containing TDP-43,[2],delayed
same,cytotoxicity induced by overexpression of TDP-43,[3],can reduce the cytotoxicity
same,hnRNP A1-induced neurocytotoxicity,[4],significant inhibitory effect
CC1=NN(c2ccccc2)C(=O)C1 [Edaravone],physical impairment in ALS patients,ALS patients; phase III clinical trials,alleviate some degree of physical impairment
poly(ADP-ribose) [PAR],LLPS of hnRNP A1,hnRNP A1,promoted
same,co-phase separation of hnRNP A1 and TDP-43 1-274,hnRNP A1 and TDP-43,can promote
same,co-phase separation of hnRNP A1 and TDP-43 274-414,hnRNP A1 and TDP-43; high concentration,cannot promote
same,phase separation of hnRNP A1 or TDP-43 1-274 alone,hnRNP A1 and TDP-43; high concentration,cannot promote
Nc1nc2ccc(OC(F)(F)F)cc2s1 [Riluzole],prolongation of the patient's life,ALS patients; ALS patients,3-6 months
same,side effects,ALS patients; ALS patients,"nausea, dizziness and even pneumonia"
heparin,LLPS of hnRNP A1,hnRNP A1,did not promote
